Laboratory results reported in ChEMBL document CHEMBL1201862, “PubChem BioAssay data set” (2004).
Calls of active or inactive are those of the source.

Legend:
[1] = biological target: T1, Sentrin-specific protease 6 (Homo sapiens, UniProt Q9GZR1); type: functional;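 note: Luminescence-based dose-response confirmatory assay of SENP6 inhibition, following up an ultra-high-throughput screen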
T1 sequence (Q9GZR1 whole entry): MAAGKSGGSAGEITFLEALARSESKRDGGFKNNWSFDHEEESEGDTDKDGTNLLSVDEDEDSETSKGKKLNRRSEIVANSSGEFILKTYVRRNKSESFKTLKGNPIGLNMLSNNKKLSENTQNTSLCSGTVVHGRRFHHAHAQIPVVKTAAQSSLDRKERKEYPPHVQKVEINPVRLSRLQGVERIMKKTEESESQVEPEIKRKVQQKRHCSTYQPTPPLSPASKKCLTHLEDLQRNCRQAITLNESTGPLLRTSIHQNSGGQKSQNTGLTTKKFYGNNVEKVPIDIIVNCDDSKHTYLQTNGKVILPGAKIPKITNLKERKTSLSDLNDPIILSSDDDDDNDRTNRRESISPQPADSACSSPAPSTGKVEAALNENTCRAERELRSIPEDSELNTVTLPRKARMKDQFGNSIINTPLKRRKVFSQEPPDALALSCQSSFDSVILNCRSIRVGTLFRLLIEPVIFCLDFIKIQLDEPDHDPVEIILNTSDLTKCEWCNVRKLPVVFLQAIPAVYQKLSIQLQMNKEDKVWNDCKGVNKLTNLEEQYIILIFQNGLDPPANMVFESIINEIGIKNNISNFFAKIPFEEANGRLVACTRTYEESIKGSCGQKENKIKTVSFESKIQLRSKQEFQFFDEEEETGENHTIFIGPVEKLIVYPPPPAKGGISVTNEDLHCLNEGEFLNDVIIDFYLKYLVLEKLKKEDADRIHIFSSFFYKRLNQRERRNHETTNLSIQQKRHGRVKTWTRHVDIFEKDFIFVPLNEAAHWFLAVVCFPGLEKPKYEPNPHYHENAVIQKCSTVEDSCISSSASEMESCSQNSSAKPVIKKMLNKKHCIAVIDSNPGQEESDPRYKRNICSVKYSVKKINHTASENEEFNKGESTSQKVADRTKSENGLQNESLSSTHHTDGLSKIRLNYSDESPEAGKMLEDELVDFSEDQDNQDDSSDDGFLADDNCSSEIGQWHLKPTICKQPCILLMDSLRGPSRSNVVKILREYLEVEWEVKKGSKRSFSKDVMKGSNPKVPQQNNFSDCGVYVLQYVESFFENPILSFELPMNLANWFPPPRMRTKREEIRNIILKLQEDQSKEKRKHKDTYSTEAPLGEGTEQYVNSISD

[2] = biological target: Dual specificity protein kinase CLK2 (Homo sapiens, UniProt P49760); type: functional
[3] = biological target: 5'-AMP-activated protein kinase catalytic subunit alpha-1 (Homo sapiens, UniProt Q13131); type: functional
[4] = biological target: Serine/threonine-protein kinase D3 (Homo sapiens, UniProt O94806); type: functional;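 note: determined within a kinase panel screen, with PRKCN as the panel member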
[5] = biological target: Death-associated protein kinase 3 (Homo sapiens, UniProt O43293); type: functional;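 note: measured as one member of a kinome-wide profiling panel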
[6] = biological target: Mitogen-activated protein kinase 8 (Homo sapiens, UniProt P45983); type: functional;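 note: value comes from one member of a kinome-wide kinase profiling panel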
[7] = biological target: Mitogen-activated protein kinase 9 (Homo sapiens, UniProt P45984); type: functional;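 note: value from a kinome panel profiling assay, MAPK9 panel entry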
[8] = biological target: Serine/threonine-protein kinase TAO1 (Homo sapiens, UniProt Q7L7X3); type: functional
[9] = biological target: Glycogen synthase kinase-3 alpha (Homo sapiens, UniProt P49840); type: functional;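 note: GSK3A result taken from a broad kinome-wide kinase panel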
[10] = biological target: Mitogen-activated protein kinase kinase kinase kinase 2 (Homo sapiens, UniProt Q12851); type: functional;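 note: measured as one member of a kinome-wide kinase panel, with MAP4K2 as the panel entry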
Activated CDC42 kinase 1 = Activated CDC42 kinase 1 (Homo sapiens, UniProt Q07912); assay: Navigating the Kinome. Panel member name: ACK1; type: functional
[11] = biological target: Vascular endothelial growth factor receptor 2 (Homo sapiens, UniProt P35968); type: functional
[12] = biological target: Leucine-rich repeat serine/threonine-protein kinase 2 (Homo sapiens, UniProt Q5S007); type: functional;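 note: value from a broad kinome-wide panel profiling study in which LRRK2 was one of the kinases tested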
[13] = biological target: Cyclin-dependent kinase 7 (Homo sapiens, UniProt P50613); type: functional;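 note: value comes from a kinome-wide kinase profiling panel in which CDK7 is one member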
[14] = biological target: Vascular endothelial growth factor receptor 1 (Homo sapiens, UniProt P17948); type: functional;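 note: measured within a kinome-wide profiling panel, FLT1 as the panel member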
[15] = biological target: Glycogen synthase kinase-3 beta (Homo sapiens, UniProt P49841); type: functional;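 note: value comes from a broad kinome profiling panel, with GSK3B as the panel member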
[16] = biological target: cAMP-dependent protein kinase catalytic subunit alpha (Homo sapiens, UniProt P17612); type: functional
Streptococcus = assay: GAS UMAA2166 growth inhibition – luminescence, BacTiterGlo, counter-screen for streptokinase expression inhibitor project, dose response (AID 1915); type: functional, organism-based;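 note: potency for reduction of bacterial viability or growth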

Sequence of Activated CDC42 kinase 1 (Q07912 whole entry): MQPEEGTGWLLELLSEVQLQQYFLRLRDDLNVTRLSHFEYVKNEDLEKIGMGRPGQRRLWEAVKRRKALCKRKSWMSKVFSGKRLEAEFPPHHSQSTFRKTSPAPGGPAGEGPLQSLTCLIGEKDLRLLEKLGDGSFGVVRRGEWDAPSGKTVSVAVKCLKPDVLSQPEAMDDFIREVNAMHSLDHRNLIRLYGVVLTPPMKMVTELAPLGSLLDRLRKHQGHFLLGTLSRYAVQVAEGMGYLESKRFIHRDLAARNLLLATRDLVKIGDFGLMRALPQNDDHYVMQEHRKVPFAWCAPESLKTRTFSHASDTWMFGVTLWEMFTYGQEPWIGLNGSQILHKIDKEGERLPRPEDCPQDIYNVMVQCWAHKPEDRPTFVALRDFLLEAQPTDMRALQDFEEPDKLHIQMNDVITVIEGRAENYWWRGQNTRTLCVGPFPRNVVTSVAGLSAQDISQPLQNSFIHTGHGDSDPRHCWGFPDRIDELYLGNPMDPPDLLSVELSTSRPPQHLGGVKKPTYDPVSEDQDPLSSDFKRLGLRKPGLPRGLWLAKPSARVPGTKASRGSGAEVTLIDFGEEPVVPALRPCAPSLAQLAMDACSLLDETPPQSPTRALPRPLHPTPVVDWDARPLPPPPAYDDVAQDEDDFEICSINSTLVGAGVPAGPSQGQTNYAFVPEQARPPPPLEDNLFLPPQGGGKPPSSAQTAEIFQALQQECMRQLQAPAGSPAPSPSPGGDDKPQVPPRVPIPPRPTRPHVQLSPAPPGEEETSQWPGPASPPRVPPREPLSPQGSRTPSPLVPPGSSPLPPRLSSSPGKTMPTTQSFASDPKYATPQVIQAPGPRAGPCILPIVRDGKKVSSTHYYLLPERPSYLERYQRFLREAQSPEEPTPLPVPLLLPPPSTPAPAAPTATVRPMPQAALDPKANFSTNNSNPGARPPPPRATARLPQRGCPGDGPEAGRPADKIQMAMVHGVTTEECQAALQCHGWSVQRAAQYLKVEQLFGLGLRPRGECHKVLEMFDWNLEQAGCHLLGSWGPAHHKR
Sequence of Serine/threonine-protein kinase D3 (O94806 whole entry): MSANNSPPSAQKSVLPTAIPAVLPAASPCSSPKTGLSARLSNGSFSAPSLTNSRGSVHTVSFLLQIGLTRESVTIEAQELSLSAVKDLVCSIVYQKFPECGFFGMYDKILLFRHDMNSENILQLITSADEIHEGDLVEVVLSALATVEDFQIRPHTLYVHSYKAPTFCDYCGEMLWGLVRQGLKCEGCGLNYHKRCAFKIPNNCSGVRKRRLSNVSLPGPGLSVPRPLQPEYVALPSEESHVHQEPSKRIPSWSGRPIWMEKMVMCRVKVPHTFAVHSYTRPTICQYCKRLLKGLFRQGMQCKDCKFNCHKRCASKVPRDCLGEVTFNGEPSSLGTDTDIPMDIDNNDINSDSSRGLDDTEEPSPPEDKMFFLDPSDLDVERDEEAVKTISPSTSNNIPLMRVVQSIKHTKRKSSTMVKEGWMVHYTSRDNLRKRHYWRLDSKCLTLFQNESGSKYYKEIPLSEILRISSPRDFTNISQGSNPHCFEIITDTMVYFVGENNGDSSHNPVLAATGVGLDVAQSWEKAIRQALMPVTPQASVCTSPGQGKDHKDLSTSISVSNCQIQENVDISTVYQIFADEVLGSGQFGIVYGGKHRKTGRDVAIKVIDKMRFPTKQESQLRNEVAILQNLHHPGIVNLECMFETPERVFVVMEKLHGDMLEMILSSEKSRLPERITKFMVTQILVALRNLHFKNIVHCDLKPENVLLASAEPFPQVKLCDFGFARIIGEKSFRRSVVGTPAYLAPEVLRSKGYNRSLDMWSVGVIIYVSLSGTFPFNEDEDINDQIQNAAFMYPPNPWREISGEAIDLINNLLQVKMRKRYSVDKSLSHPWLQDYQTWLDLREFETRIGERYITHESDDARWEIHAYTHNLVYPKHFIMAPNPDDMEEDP
Sequence of Mitogen-activated protein kinase 8 (P45983 whole entry): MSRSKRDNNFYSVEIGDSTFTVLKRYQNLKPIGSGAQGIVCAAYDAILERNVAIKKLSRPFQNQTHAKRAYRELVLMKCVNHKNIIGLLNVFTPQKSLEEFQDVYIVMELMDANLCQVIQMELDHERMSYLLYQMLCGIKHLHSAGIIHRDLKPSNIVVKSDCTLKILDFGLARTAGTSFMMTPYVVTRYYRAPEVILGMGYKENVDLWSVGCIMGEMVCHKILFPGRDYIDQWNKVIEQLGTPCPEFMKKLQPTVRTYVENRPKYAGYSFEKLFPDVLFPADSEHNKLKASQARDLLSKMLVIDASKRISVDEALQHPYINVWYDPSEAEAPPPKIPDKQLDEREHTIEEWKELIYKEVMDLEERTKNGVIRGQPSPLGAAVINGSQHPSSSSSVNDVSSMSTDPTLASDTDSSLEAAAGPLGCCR
Sequence of Glycogen synthase kinase-3 alpha (P49840 whole entry): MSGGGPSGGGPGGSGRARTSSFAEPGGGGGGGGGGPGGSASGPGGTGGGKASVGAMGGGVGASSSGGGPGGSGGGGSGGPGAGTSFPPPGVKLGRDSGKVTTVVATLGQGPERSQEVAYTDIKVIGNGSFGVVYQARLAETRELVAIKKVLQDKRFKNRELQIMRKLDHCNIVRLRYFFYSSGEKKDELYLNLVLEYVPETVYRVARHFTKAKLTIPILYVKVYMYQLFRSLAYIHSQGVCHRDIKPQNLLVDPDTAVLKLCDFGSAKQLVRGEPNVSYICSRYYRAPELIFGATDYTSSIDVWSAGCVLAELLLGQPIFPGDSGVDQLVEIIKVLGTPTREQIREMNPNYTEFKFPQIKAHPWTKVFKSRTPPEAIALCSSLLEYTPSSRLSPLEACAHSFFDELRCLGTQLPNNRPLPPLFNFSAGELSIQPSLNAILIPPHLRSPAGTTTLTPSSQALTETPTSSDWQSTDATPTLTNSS
Sequence of Vascular endothelial growth factor receptor 2 (P35968 whole entry): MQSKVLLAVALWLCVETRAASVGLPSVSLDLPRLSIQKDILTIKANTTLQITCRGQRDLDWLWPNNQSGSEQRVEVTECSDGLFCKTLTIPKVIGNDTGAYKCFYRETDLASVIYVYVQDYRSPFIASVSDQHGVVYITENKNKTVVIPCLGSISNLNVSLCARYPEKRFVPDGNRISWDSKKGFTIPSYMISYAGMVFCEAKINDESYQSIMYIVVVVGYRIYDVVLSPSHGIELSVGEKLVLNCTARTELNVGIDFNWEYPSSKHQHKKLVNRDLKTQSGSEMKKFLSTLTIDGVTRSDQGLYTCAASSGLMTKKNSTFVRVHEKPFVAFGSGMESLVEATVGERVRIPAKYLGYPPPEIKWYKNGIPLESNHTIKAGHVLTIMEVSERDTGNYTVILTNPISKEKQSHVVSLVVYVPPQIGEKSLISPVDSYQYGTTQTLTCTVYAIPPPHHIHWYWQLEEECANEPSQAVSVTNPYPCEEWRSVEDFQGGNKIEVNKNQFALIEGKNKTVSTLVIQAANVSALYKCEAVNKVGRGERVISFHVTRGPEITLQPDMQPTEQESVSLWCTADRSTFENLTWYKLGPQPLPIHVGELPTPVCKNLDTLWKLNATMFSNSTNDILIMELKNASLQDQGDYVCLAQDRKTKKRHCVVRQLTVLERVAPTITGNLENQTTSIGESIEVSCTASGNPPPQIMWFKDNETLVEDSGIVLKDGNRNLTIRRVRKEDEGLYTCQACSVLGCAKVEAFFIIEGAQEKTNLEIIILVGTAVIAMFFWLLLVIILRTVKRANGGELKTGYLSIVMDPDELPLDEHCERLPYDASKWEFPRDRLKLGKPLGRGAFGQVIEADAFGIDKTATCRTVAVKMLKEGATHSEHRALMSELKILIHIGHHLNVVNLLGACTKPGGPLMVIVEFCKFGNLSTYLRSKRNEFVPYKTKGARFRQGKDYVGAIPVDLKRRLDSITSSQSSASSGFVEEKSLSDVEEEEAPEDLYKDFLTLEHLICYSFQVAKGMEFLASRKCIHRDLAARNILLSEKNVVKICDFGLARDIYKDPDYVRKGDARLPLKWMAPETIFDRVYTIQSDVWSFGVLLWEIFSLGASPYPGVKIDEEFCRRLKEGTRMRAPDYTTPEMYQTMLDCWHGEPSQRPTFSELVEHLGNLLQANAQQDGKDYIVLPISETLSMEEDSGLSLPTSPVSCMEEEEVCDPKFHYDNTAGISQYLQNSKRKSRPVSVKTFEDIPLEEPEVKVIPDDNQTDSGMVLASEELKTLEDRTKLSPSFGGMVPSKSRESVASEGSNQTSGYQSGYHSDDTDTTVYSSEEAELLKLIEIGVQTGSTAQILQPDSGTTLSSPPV
Sequence of Dual specificity protein kinase CLK2 (P49760 whole entry): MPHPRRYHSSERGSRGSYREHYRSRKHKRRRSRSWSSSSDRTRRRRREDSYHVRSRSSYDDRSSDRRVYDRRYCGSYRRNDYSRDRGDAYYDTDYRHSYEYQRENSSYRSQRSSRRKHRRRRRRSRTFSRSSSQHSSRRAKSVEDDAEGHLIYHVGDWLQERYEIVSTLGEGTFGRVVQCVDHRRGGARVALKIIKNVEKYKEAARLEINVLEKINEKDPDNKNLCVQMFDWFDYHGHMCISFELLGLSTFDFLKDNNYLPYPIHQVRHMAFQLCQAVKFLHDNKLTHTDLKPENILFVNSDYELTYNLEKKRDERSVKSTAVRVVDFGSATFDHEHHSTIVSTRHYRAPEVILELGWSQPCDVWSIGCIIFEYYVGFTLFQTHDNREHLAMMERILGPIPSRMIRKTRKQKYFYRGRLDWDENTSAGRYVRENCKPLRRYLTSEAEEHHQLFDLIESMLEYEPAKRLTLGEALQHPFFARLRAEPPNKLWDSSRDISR
Sequence of Cyclin-dependent kinase 7 (P50613 whole entry): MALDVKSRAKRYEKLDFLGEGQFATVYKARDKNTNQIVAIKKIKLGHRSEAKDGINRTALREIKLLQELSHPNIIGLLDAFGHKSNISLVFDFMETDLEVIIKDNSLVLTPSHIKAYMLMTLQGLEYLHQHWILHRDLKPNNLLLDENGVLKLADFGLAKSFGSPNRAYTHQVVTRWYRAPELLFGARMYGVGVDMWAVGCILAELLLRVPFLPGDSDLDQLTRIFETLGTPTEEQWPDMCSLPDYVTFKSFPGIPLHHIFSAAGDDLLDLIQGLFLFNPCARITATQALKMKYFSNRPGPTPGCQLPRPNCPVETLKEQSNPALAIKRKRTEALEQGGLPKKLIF

Ki [2] | Ki [3] | Ki [4] | Ki [6] | Ki [7] | Ki [8] | Ki [9] | Ki [10] | Ki (Activated CDC42 kinase 1) | Ki [11] | Ki [12] | Ki [13] | Ki [14] | Ki [15] | Ki [16] | SMILES | IC50 [1] | Ki [5] | EC50 (Streptococcus)
– | – | – | – | – | – | – | – | – | – | – | – | – | – | – | O=C(N/N=C/c1c(O)ccc2ccccc12)c1[nH]ncc1Br | > 100 µM (inactive) | – | –
> 3.98 µM (inactive) | > 3.16 µM (inactive) | > 3.98 µM (inactive) | > 5.01 µM (inactive) | > 3.98 µM (inactive) | > 6.31 µM (inactive) | > 3.98 µM (inactive) | > 2.51 µM (inactive) | 0.2 µM (active) | 0.0126 µM (active) | > 2.51 µM (inactive) | > 3.98 µM (inactive) | 0.251 µM (active) | > 3.98 µM (inactive) | > 1.26 µM (inactive) | Nc1c(-c2ccc(NC(=O)Nc3cccc(C(F)(F)F)c3)cc2)cnc2c(-c3ccc4c(c3)OCO4)cnn12 | – | > 5.01 µM (inactive) | –
– | – | – | – | – | – | – | – | – | – | – | – | – | – | – | CCN1C(=Cc2sc3ccccc3[n+]2C)C=Cc2cccc(C)c21 | – | – | 8.99 µM (active)
– | – | – | – | – | – | – | – | – | – | – | – | – | – | – | CNC[C@H](Cc1ccccc1)NC[C@@H](Cc1cccc2ccccc12)NCCc1ccc(C)cc1 | – | – | 7.51 µM (active)
– | – | – | – | – | – | – | – | – | – | – | – | – | – | – | Nc1nnc2c(n1)CCCC2 | 7.37 µM (active) | – | –
> 3.16 µM (inactive) | > 3.16 µM (inactive) | > 3.98 µM (inactive) | > 5.01 µM (inactive) | > 3.98 µM (inactive) | > 6.31 µM (inactive) | > 3.98 µM (inactive) | > 2.51 µM (inactive) | > 3.98 µM (inactive) | > 2.51 µM (inactive) | > 2.51 µM (inactive) | > 3.98 µM (inactive) | > 3.98 µM (inactive) | > 3.98 µM (inactive) | > 2.51 µM (inactive) | O=C(Nc1cc(-c2c[nH]c3ncccc23)cc(Cl)n1)c1ccccc1 | – | > 3.98 µM (inactive) | –
